Legend:
[1] = molecular target: T1, BT4244-CBM32 (Bacteroides thetaiotaomicron, UniProt Q89ZX7); experiment: ITC; format: binding; conditions: 20 mM Tris-HCl pH 7.5, 25 °C; single-site model
T1 construct: gene BT_4244
T1 sequence (Q89ZX7 145-285 limits assumed): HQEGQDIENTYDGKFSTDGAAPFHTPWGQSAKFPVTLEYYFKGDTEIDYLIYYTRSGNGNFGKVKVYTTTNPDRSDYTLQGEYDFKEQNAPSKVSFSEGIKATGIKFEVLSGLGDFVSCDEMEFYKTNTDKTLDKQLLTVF

[2] = molecular target: T2, BT4245-SGBP (Bacteroides thetaiotaomicron, UniProt Q89ZX6); experiment: ITC; format: binding; conditions: 20 mM Tris-HCl pH 7.5, 25 °C; single-site model
T2 construct: gene BT_4245; full-length mature protein, signal peptide removed, His-tagged, from E. coli
T2 sequence (Q89ZX6 21-430): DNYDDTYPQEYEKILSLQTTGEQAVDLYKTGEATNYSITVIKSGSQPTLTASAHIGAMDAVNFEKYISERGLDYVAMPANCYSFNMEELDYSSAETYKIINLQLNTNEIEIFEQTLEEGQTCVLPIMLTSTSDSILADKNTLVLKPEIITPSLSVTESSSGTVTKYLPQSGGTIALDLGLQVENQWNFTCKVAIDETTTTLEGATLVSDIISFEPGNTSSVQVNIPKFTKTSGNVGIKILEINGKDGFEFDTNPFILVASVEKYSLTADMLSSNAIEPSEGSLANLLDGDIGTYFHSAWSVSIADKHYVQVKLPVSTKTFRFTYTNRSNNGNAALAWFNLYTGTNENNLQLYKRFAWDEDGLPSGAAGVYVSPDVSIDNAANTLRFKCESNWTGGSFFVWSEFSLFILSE

[3] = molecular target: T3, BT4246-SusD-like (Bacteroides thetaiotaomicron, UniProt Q89ZX5); experiment: ITC; format: binding; set-up: gene BT_4246; mature form, signal peptide removed, His-tagged, from E. coli (ITC); conditions: 20 mM Tris-HCl pH 7.5, 25 °C; single-site model
T3 sequence (Q89ZX5 25-642): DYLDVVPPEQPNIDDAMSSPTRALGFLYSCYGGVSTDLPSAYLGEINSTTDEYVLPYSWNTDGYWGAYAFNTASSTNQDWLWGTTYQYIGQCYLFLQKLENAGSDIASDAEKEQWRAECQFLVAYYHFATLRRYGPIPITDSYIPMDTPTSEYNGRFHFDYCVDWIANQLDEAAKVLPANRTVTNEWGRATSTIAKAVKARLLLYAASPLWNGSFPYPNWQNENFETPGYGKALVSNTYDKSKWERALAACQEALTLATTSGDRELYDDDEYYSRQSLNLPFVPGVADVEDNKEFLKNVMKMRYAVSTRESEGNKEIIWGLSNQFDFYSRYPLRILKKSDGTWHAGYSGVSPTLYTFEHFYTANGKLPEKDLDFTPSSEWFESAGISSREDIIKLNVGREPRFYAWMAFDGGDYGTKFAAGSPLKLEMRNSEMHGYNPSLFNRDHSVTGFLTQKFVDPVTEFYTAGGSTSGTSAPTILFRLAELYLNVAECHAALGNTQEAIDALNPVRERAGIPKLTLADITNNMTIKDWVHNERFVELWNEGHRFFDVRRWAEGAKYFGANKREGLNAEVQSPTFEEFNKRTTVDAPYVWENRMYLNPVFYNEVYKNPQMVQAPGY

[4] = molecular target: T3, BT4246-SusD-like; experiment: X-ray crystal structure, […] Å; format: binding; set-up: gene BT_4246; residues 25-642, His-tag removed by TEV protease, from E. coli (crystal); conditions: crystals soaked in 4% PGMIII O-glycan oligosaccharides; only the terminal Gal of an undefined oligosaccharide is modelled, not free galactose
[5] = substrate: CC(=O)N[C@H]1[C@@H](Oc2ccc([N+](=O)[O-])cc2)O[C@H](CO)[C@H](O)[C@@H]1O; experiment: 4-nitrophenol release at A400; format: biochemical, Bacteroides thetaiotaomicron; conditions: 20 mM MOPS pH 7.0, 37 °C, 0.4 µM enzyme
Method: 4-nitrophenol release at A400 on BT4243-GH109 | between GalNAc and serine in Tn antigen as well as PNP-α-GalNAc | enzyme (final) was added to substrate (PNP-α-GalNAc or PNP-β-GalNAc, respectively)

With `CC(=O)N[C@H]1C(O)O[C@H](CO)[C@H](O)[C@@H]1O` (some centres unmarked) [GalNAc] the Ka [1] was 0.40 (±0.03) × 10^4 and the Ka [2] was 1.20 (±0.2) × 10^4.

`OC[C@H]1OC(O)[C@H](O)[C@@H](O)[C@H]1O` (some centres unmarked) [Gal] was tested, and the Ka [1] was 0.16 (±0.01) × 10^4 and the Ka [2] was > 0.1 × 10^4.

In the case of `CC(=O)N[C@H]1C(O)O[C@H](CO)[C@H](O)[C@@H]1O[C@@H]1O[C@H](CO)[C@H](O)[C@H](O)[C@H]1O` (some centres unmarked) [core 1 disaccharide], the Ka [1] is reported as 0.20 (±0.01) × 10^4 and the Ka [3] is reported as 0.45 (±0.03) × 10^4.

In the case of `CC(=O)N[C@H]1C(O)O[C@H](CO)[C@@H](O)[C@@H]1O[C@@H]1O[C@H](CO)[C@H](O)[C@H](O)[C@H]1O` (some centres unmarked) [lacto-N-biose], the Ka [3] is reported as 0.13 (±0.07) × 10^4.

In the case of `OC[C@H]1O[C@@H](O[C@H]2[C@H](O)[C@@H](O)C(O)O[C@@H]2CO)[C@H](O)[C@@H](O)[C@H]1O` (some centres unmarked) [lactose], the Ka [1] is reported as 0.23 (±0.00) × 10^4.

With `OC[C@H]1OC(O)[C@H](O)[C@@H](O)[C@H]1O` (some centres unmarked) [terminal Gal from a mucin O-glycan oligosaccharide] the “X-ray crystal structure, 1.8 Å” value [4] was “In the resulting structure, unambiguous electron density was observed for a β-linked Gal”.

B1: BT4243-GH109 (Bacteroides thetaiotaomicron VPI-5482) (protein)
chain: QKTKAKFSPIKVETPARPANQQDVIQLVTPKLETVRVGFIGLGMRGPGAVERWTHIPGTQIVALCDLLPERVENAQKILEKAGLPKAASYAGDEKAWKKLCERDDIDVVYIATDWKHHADMGVYAMEHGKHVAIEVPAAMTLDEIWKLINTSEKTRKHCMQLENCVYDFFELTSLNMAQQGVFGEVLHVEGAYIHNLEDFWPYYWNNWRMDYNQKHRGDVYATHGMGPACQVLNIHRGDRMKTLVAMDTKAVNGPAYIKKSTGKEVKDFQNGDQTTTLIRTENGKTMLIQHNVMTPRPYSRMYQVVGADGYASKYPIEEYCLRPTQVDSNDVPNHEKLNAHGSVSEDVKKALMAKYKDPIHKELEETAKKVGGHGGMDYIMDYRLVYCLRNGLPLDMDVYDLAEWCCMAELTRLSIENGSAPVEVPDFTRGGWNKVQGYRHAFAE
notes: mature form, signal peptide removed, His-tagged, from E. coli
In the case of B1, the Km [5] is reported as 0.03 (±0.005) mM and the kcat [5] is reported as 2.1 (±0.3) s-1.
